From BindingDB's records for doi:10.1016/0960-894X(96)00091-1 (1996)

Target: Endothelin-converting enzyme 1 (Sus scrofa)
Assay: Compound was evaluated for inhibition of Endothelin-converting enzyme 1 partially purified from porcine primary aortic endothelial cells

IC50 [µM] | Compound
6.5 | O=C(N[C@@H](CS)Cc1c[nH]c2ccccc12)C1CCN(C(=O)Cc2ccc(-c3ccccc3)cc2)CC1 [1-(2-Biphenyl-4-yl-acetyl)-piperidine-4-carboxylic acid [(R)-2-(1H-indol-3-yl)-1-mercaptomethyl-ethyl]-amide]
5.2 | O=C(Cc1ccc(-c2ccccc2)cc1)N[C@@H](CS)Cc1cccnc1 [2-Biphenyl-4-yl-N-((R)-1-mercaptomethyl-2-pyridin-3-yl-ethyl)-acetamide]
5.4 | O=C(CCC(C(=O)O)c1ccccc1)N[C@@H](CS)Cc1c[nH]c2ccccc12 (stereo partly drawn) [4-[(R)-2-(1H-Indol-3-yl)-1-mercaptomethyl-ethylcarbamoyl]-2-phenyl-butyric acid]
7.7 | O=C(Cc1ccc(OCc2cccnc2)cc1)N[C@@H](CS)Cc1c[nH]c2ccccc12 [N-[(R)-2-(1H-Indol-3-yl)-1-mercaptomethyl-ethyl]-2-[4-(pyridin-3-ylmethoxy)-phenyl]-acetamide]
5.2 | O=C(N[C@@H](CS)Cc1c[nH]c2ccccc12)c1cccs1 [Thiophene-2-carboxylic acid [(R)-2-(1H-indol-3-yl)-1-mercaptomethyl-ethyl]-amide]
